Results published in patent US6667346B2, “Method for protecting cells and tissues from ionizing radiation toxicity with α, β unsaturated aryl sulfones” (Temple University - Of The Commonwealth System of Higher …, priority 2001, dated 2003).

Legend:
[1] = system: HFL-1 cells; experiment: Radioprotective effects on cultured normal cells (colony formation after irradiation); format: cell-based, human; conditions: HFL-1 normal diploid lung fibroblasts; 2.5 to 20 micromolar for 24 hrs before 10 Gy or 15 Gy IR; colonies counted after 3 weeks
Method: HFL-1 cells, which are normal diploid lung fibroblasts, were plated into 24 well dishes at a cell density of 3000 cells per 10 mm^2 in DMEM completed with 10% fetal bovine serum and antibiotics. The test compounds listed in Table 16 were added to the cells 24 hours later in select concentrations from 2.5 to 20 micromolar, inclusive, using DMSO as a solvent. Control cells were treated with DMSO alone. The cells were exposed to the test compound or DMSO for 24 hrs. The cells were then irradiated with either 10 Gy (gray) or 15 Gy of ionizing radiation (IR) using a J. L. Shepherd Mark I, Model 30-1 Irradiator equipped with ^137cesium as a source.
After irradiation, the medium on the test and control cells was removed and replaced with fresh growth medium without the test compounds or DMSO. The irradiated cells were incubated for 96 hours and duplicate wells were trypsinized and replated onto 100 mm^2 tissue culture dishes. The replated cells were grown under normal conditions with one change of fresh medium for 3 weeks. The number of colonies from each 100 mm^2 culture dish, which represents the number of surviving cells, was determined by staining the dishes as described below.
To visualize and count the colonies derived from the clonal outgrowth of individual radioprotected cells, the medium was removed and the plates were washed one time with room temperature phosphate buffered saline. The cells were stained with a 1:10 diluted Modified Giemsa staining solution (Sigma) for 20 minutes. The stain was removed, and the plates were washed with tap water. The plates were air dried, the number of colonies from each plate were counted and the average from duplicate plates was determined.
A “+” indicates radioprotective activity of between 2- and 4.5-fold at the concentrations tested. Fold protection was determined by dividing the average number of colonies from the test plates by the average number of colonies on the control plates.

[2] = system: DU145 cells; experiment: Tumor cell killing by ionizing radiation, compound added after IR treatment; format: cell-based; conditions: for Interference with killing of tumor cells by ionizing radiation: continuous exposure, added immediately following 10 Gy IR
Method: DU145 cells were plated in 6 well dishes at a cell density of 1.0×10^5 cells per 35 mm^2 in DMEM completed with 10% fetal bovine serum and antibiotics. The plates were incubated overnight and the cells were irradiated with 10 Gy of ionizing irradiation. Compound 1 (1.0 uM and 2.0 uM) or Compound 13 (10.0 uM and 20.0 uM) in DMSO was added to the cells immediately following the IR treatment.

[3] = system: C57 black mice; experiment: Protection of mice from radiation toxicity by pre-treatment (mortality after 8 Gy); format: in vivo
Method: C57 black mice age 10-12 weeks (Taconic) were divided into two treatment groups of 10 mice each. One group, designated the “200×2” group, received intraperitoneal injections of 200 micrograms (E)-4-carboxystyryl-4-chlorobenzylsulfone dissolved in DMSO (a 10 mg/Kg dose, based on 20 g mice) 18 and 6 hours before irradiation with 8 Gy gamma radiation. The other group, designated “500×2,” received intraperitoneal injections of 500 micrograms (E)-4-carboxystyryl-4-chlorobenzylsulfone dissolved in DMSO (a 25 mg/Kg dose, based on 20 g mice) 18 and 6 hours before irradiation with 8 Gy gamma radiation. A control group of 16 animals received 8 Gy gamma radiation alone.

[4] = system: C57 B6/J mice; experiment: Radioprotective effect in mice when given after radiation exposure (mortality after 8 Gy); format: in vivo
Method: One group, designated the “200×2” group, received intraperitoneal injections of 200 micrograms (E)-4-carboxystyryl-4-chlorobenzylsulfone dissolved in DMSO (a 10 mg/Kg dose, assuming 20 g mice) 18 and 6 hours before irradiation with 8 Gy gamma radiation. The other group, designated “200 Post,” received an intraperitoneal injection of 200 micrograms (E)-4-carboxystyryl-4-chlorobenzylsulfone dissolved in DMSO (a 10 mg/Kg dose, based on 20 g mice) 15 minutes after irradiation with 8 Gy gamma radiation. A control group of 16 animals received 8 Gy gamma radiation alone.

[5] = "200×2" group: 10 mg/Kg i.p. 18 and 6 hours before 8 Gy gamma radiation
[6] = "500×2" group: 25 mg/Kg i.p. 18 and 6 hours before 8 Gy gamma radiation

(E)-4-Fluorostyryl-4-cyanobenzylsulfone [Compound 6]
Activity (radioprotective activity, fold protection: colonies test/control) [1]: + (radioprotective activity of between 2- and 4.5-fold at the concentrations tested)

O=S(=O)(/C=C/c1ccc(F)cc1)Cc1ccc(Cl)cc1 [Compound 1, (E)-4-Fluorostyryl-4-chlorobenzylsulfone]
Activity (radioprotective activity, fold protection: colonies test/control) [1]: + (radioprotective activity of between 2- and 4.5-fold at the concentrations tested)
Additive tumor cell killing effect ([2]; 2.0 uM added immediately following 10 Gy IR): additive tumor cell killing effect
Interference with killing of tumor cells by ionizing radiation [2]: did not interfere with the killing of tumor cells by ionizing radiation

O=S(=O)(/C=C/c1ccoc1)Cc1ccc(Cl)cc1Cl [Compound 8, (E)-3-Furanethenyl-2,4-dichlorobenzylsulfone]
Activity (radioprotective activity, fold protection: colonies test/control) [1]: + (radioprotective activity of between 2- and 4.5-fold at the concentrations tested)

O=C(O)c1ccc(/C=C/S(=O)(=O)Cc2ccc(Cl)cc2)cc1 [Compound 13, (E)-4-Carboxystyryl-4-chlorobenzylsulfone]
Activity (radioprotective activity, fold protection: colonies test/control) [1]: + (radioprotective activity of between 2- and 4.5-fold at the concentrations tested)
Additive tumor cell killing effect ([2]; 20 uM added immediately following 10 Gy IR): additive tumor cell killing effect
Interference with killing of tumor cells by ionizing radiation [2]: did not interfere with the killing of tumor cells by ionizing radiation
Maximum mortality rate by day 40 [3, 5]: approximately 60%
Mice dead at day 20 post-irradiation [3, 5]: about 50%
Maximum mortality rate by day 40 [3, 6]: about 50%
Mice dead at day 20 post-irradiation [3, 6]: about 30%
Radiation toxicity in mice ([3]; pretreatment 18 and 6 hours before 8 Gy gamma radiation): significantly reduced
Radioprotection by post-irradiation treatment versus pre-irradiation treatment ([4]; "200 Post" vs "200×2" group, 8 Gy gamma radiation): not as great as seen with pre-irradiation treatment
Radiation-induced mortality compared with control animals ([4]; "200 Post": 10 mg/Kg i.p. 15 minutes after 8 Gy gamma radiation): significant delay in radiation-induced mortality

(E)-4-Fluorostyryl-4-chlorophenylsulfone [Compound 10]
Activity (radioprotective activity, fold protection: colonies test/control) [1]: + (radioprotective activity of between 2- and 4.5-fold at the concentrations tested)

O=S(=O)(/C=C\c1ccc(F)cc1)Cc1ccc(Cl)cc1 [Compound 7, (Z)-4-Fluorostyryl-4-chlorobenzylsulfone]
Activity (radioprotective activity, fold protection: colonies test/control) [1]: + (radioprotective activity of between 2- and 4.5-fold at the concentrations tested)

(E)-2,4,6-Trimethoxystyryl-4-methoxybenzylsulfone [Compound 2]
Activity (radioprotective activity, fold protection: colonies test/control) [1]: + (radioprotective activity of between 2- and 4.5-fold at the concentrations tested)

(Z)-Styryl-(E)-2-methoxy-4-ethoxystyrylsulfone [Compound 11]
Activity (radioprotective activity, fold protection: colonies test/control) [1]: + (radioprotective activity of between 2- and 4.5-fold at the concentrations tested)

(E)-4-Fluorostyryl-4-trifluoromethylbenzylsulfone [Compound 5]
Activity (radioprotective activity, fold protection: colonies test/control) [1]: + (radioprotective activity of between 2- and 4.5-fold at the concentrations tested)
